Laboratory results published in ChEMBL document CHEMBL5505968, “Hybrids of selective COX-2 inhibitors and active derivatives of edaravone as COX-2 selective NSAIDs with free radical scavenging activity: Design, synthesis and biological activities” (Eur J Med Chem, 2024).
One block for each compound: values may come before it.

Key:
[1] = target: Prostaglandin G/H synthase 2 (Homo sapiens) (UniProt P35354); test: Inhibition of COX-2 (unknown origin) using arachidonic acid as substrate at 1 uM preincubated for 10 mins followed by substrate addition and measured after 5 mins by fluorescence based analysis relative to control; settings: time 15.0 min
Prostaglandin G/H synthase 2 (Homo sapiens), sequence (P35354 whole entry, looked up): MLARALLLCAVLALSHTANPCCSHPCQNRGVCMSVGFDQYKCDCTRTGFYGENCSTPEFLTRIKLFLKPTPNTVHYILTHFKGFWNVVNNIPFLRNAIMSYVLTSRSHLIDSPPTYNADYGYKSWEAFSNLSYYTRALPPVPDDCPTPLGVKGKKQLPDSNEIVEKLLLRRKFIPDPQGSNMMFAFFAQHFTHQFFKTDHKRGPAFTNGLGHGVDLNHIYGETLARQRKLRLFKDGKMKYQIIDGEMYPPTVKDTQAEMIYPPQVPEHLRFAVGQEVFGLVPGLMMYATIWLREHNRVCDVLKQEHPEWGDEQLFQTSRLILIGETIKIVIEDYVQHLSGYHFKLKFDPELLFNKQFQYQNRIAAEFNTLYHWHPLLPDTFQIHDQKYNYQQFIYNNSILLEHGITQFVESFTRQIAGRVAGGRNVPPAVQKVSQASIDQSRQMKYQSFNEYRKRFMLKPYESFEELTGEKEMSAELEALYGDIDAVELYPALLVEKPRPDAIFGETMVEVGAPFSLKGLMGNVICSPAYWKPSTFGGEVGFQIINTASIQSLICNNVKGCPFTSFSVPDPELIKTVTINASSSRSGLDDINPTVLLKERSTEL

[2] = target: Prostaglandin G/H synthase 2 (Homo sapiens) (UniProt P35354); test: Inhibition of COX-2 (unknown origin) using arachidonic acid as substrate at 10 uM preincubated for 10 mins followed by substrate addition and measured after 5 mins by fluorescence based analysis relative to control; settings: time 15.0 min
[3] = Antioxidant activity assessed as DPPH radical scavenging activity at 40 uM incubated for 30 mins by thermo-microplate photometric analysis relative to control; assay type: functional
Mus musculus [4] = test: Analgesic activity against acetic acid-induced ICR mouse assessed as number of writhing at 20 mg/kg,ip pre-administrated with compound for 15 mins followed by acetic acid addition and measured after 15 mins; assay type: functional; settings: time 30 min, 0.5 h
Mus musculus [5] = test: Analgesic activity against acetic acid-induced ICR mouse assessed as inhibition of writhing at 20 mg/kg,ip pre-administrated with compound for 15 mins followed by acetic acid addition and measured after 15 mins; assay type: functional; settings: 0.5 h, time 30 min
[6] = Antioxidant activity assessed as DPPH radical scavenging activity incubated for 30 mins by thermo-microplate photometric analysis; assay type: functional
Liver [7] = test: Antioxidant activity against FeCl2 induced oxidative stress in ICR mouse liver assessed as inhibition of malondialdehyde level at 250 uM incubated for 60 mins by thermo-microplate photometric analysis relative to control; assay type: functional; settings: 1 h
Liver [8] = test: Antioxidant activity against FeCl2 induced oxidative stress in ICR mouse liver assessed as inhibition of malondialdehyde level at 1000 uM incubated for 60 mins by thermo-microplate photometric analysis relative to control; assay type: functional; settings: 1 h
Liver [9] = test: Antioxidant activity against FeCl2 induced oxidative stress in ICR mouse liver assessed as inhibition of malondialdehyde level at 500 uM incubated for 60 mins by thermo-microplate photometric analysis relative to control; assay type: functional; settings: 1 h
[10] = AUC (0 to infinity) in ICR mouse at 1 mg/kg,iv administration measured for 0.25 to 8 hrs by LC-MS/MS analysis; assay type: ADME, organism-based; settings: in vivo, time 0.25-8 hrs
Mus musculus [11] = test: Analgesic activity against acetic acid-induced ICR mouse assessed as number of writhing at 50 mg/kg,ip pre-administrated with compound for 15 mins followed by acetic acid addition and measured after 15 mins; assay type: functional; settings: time 30 min, 0.5 h
[12] = Clearance in ICR mouse at 1 mg/kg,iv administration measured for 0.25 to 8 hrs by LC-MS/MS analysis; assay type: ADME, organism-based; settings: in vivo, time 0.25-8 hrs
[13] = Cmax in ICR mouse at 1 mg/kg,iv administration measured for 0.25 to 8 hrs by LC-MS/MS analysis; assay type: ADME, organism-based; settings: in vivo, time 0.25-8 hrs
[14] = Cmax in ICR mouse at 10 mg/kg,po administration measured for 0.25 to 8 hrs by LC-MS/MS analysis; assay type: ADME, organism-based; settings: in vivo, time 0.25-8 hrs
[15] = Half life in ICR mouse at 1 mg/kg,iv administration measured for 0.25 to 8 hrs by LC-MS/MS analysis; assay type: ADME, organism-based; settings: in vivo, time 0.25-8 hrs
[16] = Apparent volume of distribution in ICR mouse at 1 mg/kg,iv administration measured for 0.25 to 8 hrs by LC-MS/MS analysis; assay type: ADME, organism-based; settings: in vivo, time 0.25-8 hrs, read-out: Vz
[17] = Bioavailability in ICR mouse at 1 mg/kg,iv administration measured for 0.25 to 8 hrs by LC-MS/MS analysis; assay type: ADME, organism-based; settings: in vivo, time 0.25-8 hrs
[18] = AUC (0 to t) in ICR mouse at 1 mg/kg,iv administration measured for 0.25 to 8 hrs by LC-MS/MS analysis; assay type: ADME, organism-based; settings: in vivo, time 0.25-8 hrs
[19] = AUC (0 to t) in ICR mouse at 10 mg/kg,po administration measured for 0.25 to 8 hrs by LC-MS/MS analysis; assay type: ADME, organism-based; settings: in vivo, time 0.25-8 hrs
[20] = MRT (0 to infinity) in ICR mouse at 10 mg/kg,po administration measured for 0.25 to 8 hrs by LC-MS/MS analysis; assay type: ADME, organism-based; settings: in vivo, time 0.25-8 hrs
[21] = Apparent volume of distribution in ICR mouse at 10 mg/kg,po administration measured for 0.25 to 8 hrs by LC-MS/MS analysis; assay type: ADME, organism-based; settings: in vivo, time 0.25-8 hrs
[22] = Clearance in ICR mouse at 10 mg/kg,po administration measured for 0.25 to 8 hrs by LC-MS/MS analysis; assay type: ADME, organism-based; settings: in vivo, time 0.25-8 hrs
[23] = Half life in ICR mouse at 10 mg/kg,po administration measured for 0.25 to 8 hrs by LC-MS/MS analysis; assay type: ADME, organism-based; settings: in vivo, time 0.25-8 hrs
[24] = Tmax in ICR mouse at 10 mg/kg,po administration measured for 0.25 to 8 hrs by LC-MS/MS analysis; assay type: ADME, organism-based; settings: in vivo, time 0.25-8 hrs
Mus musculus [25] = test: Analgesic activity against acetic acid-induced ICR mouse assessed as inhibition of writhing at 50 mg/kg,ip pre-administrated with compound for 15 mins followed by acetic acid addition and measured after 15 mins; assay type: functional; settings: 0.5 h, time 30 min
[26] = Tmax in ICR mouse at 1 mg/kg,iv administration measured for 0.25 to 8 hrs by LC-MS/MS analysis; assay type: ADME, organism-based; settings: in vivo, time 0.25-8 hrs
[27] = AUC (0 to infinity) in ICR mouse at 10 mg/kg,po administration measured for 0.25 to 8 hrs by LC-MS/MS analysis; assay type: ADME, organism-based; settings: in vivo, time 0.25-8 hrs
[28] = MRT (0 to infinity) in ICR mouse at 1 mg/kg,iv administration measured for 0.25 to 8 hrs by LC-MS/MS analysis; assay type: ADME, organism-based; settings: in vivo, time 0.25-8 hrs

inhibition [1]: 78% | inhibition [2]: 86.5%
Compound: Cc1nn(-c2ccccc2)c(O)c1Cc1ccc(CC(=O)O)cc1
inhibition [3]: 38.5%

inhibition [1]: 63.5% | inhibition [2]: 94.5%
Compound: Cc1nn(-c2ccccc2)c(O)c1Cc1cccc(C(=O)O)c1
inhibition [3]: 17.4%

inhibition [1]: 54.5% | inhibition [2]: 73%
Compound: CC(C)(C)c1nn(-c2ccccc2)c(O)c1Cc1ccc(C(=O)O)cc1
inhibition [3]: 49.9%

inhibition [1]: 57.5% | inhibition [2]: 82%
Compound: O=C(O)c1ccc(Cc2c(C3CC3)nn(-c3ccccc3)c2O)cc1
inhibition [3]: 37.3%

inhibition [1]: 70.5% | inhibition [2]: 82.5% | IC50 [6]: 22.1 µM
Compound: CCc1nn(-c2ccccc2)c(O)c1Cc1ccc(C(=O)NO)cc1
inhibition [3]: 67.7%

inhibition [1]: 85.5% | inhibition [2]: 95%
Compound: Cc1nn(-c2ccccc2)c(O)c1Cc1ccc(C(=O)O)cc1
inhibition [3]: 37.7%

inhibition [1]: 63.5% | inhibition [2]: 83.5%
Compound: CCc1nn(-c2ccccc2)c(O)c1Cc1ccc(C(=O)O)cc1
inhibition [3]: 42.7%

inhibition [1]: 75% | inhibition [2]: 89% | IC50 [6]: 19.6 µM
Compound: CC(C)(C)c1nn(-c2ccccc2)c(O)c1Cc1ccc(C(=O)NO)cc1
inhibition [3]: 72.9%

Second part, the compound before the results:

Compound: Cc1nn(-c2ccc(Cl)cc2)c(O)c1Cc1ccc(C(=O)NO)cc1
inhibition [1]: 64.5% | inhibition [2]: 78.5% | inhibition [3]: 68%

Compound: O=C(NO)c1ccc(Cc2c(C3CC3)[nH]n(-c3ccccc3)c2=O)cc1
inhibition [1]: 55% | inhibition [2]: 72.5% | inhibition [3]: 64.7%

Compound: COc1cccc(-n2nc(C)c(Cc3ccc(C(=O)O)cc3)c2O)c1
inhibition [1]: 58.5% | inhibition [2]: 79% | inhibition [3]: 33.6%

Compound: Cc1ccc(-c2cc(C(F)(F)F)nn2-c2ccc(S(N)(=O)=O)cc2)cc1 [CELECOXIB]
Activity (Mus musculus [4]): 7.1 | inhibition in vivo at 20 mg/kg (Mus musculus [5]): 80.9%

Compound: CC1=NN(c2ccccc2)C(=O)C1 [EDARAVONE]
IC50 [6]: 32.8 µM | inhibition at 250 µM (Liver [7]): 37.7% | inhibition at 1000 µM (Liver [8]): 62.2% | inhibition [3]: 64.3% | inhibition at 500 µM (Liver [9]): 46.9%

Compound: Cc1nn(-c2ccc(Cl)c(Cl)c2)c(O)c1Cc1ccc(C(=O)NO)cc1
inhibition [1]: 58.5% | inhibition [2]: 80.5% | inhibition [3]: 58.1%

Compound: Cc1[nH]n(-c2ccccc2)c(=O)c1Cc1cccc(C(=O)NO)c1
inhibition [1]: 66.5% | inhibition [2]: 86% | inhibition [3]: 11%

Compound: Cc1nn(-c2ccccc2)c(O)c1Cc1ccc(S(C)(=O)=O)cc1
inhibition [1]: 77.5% | inhibition [2]: 90% | inhibition [3]: 37.1%

Compound: Cc1nn(-c2cccc(Cl)c2)c(O)c1Cc1ccc(C(=O)O)cc1
inhibition [1]: 45.5% | inhibition [2]: 75% | inhibition [3]: 35.8%

Compound: Cc1nn(-c2ccc(Cl)c(Cl)c2)c(O)c1Cc1ccc(C(=O)O)cc1
inhibition [1]: 50.5% | inhibition [2]: 81% | inhibition [3]: 38.6%

Compound: Cc1[nH]n(-c2ccccc2)c(=O)c1Cc1ccc(C(=O)NO)cc1
AUC(0-inf) [10]: 7870 ng·h/mL | inhibition [1]: 87% | Activity (Mus musculus [11]): 9.8 | clearance [12]: 2.12 mL/min/kg | Cmax [13]: 12200 ng/mL | Cmax [14]: 4510 ng/mL | inhibition [2]: 98% | half-life [15]: 2.74 h | Vd [16]: 0.508 L/kg | IC50 [6]: 19.9 µM | bioavailability [17]: 36% | AUC(0-t) [18]: 7680 ng·h/mL | Activity (Mus musculus [4]): 11.1 | AUC(0-t) [19]: 20300 ng·h/mL | MRT inf [20]: 6.32 h | inhibition at 250 µM (Liver [7]): 51.9% | Vz [21]: 2.13507 L/kg | inhibition at 1000 µM (Liver [8]): 77.3% | CL/F [22]: 5.92 mL/min/kg | half-life [23]: 4.16 h | inhibition [3]: 71.6% | Tmax [24]: 1 h | inhibition in vivo at 20 mg/kg (Mus musculus [5]): 70.2% | inhibition in vivo at 50 mg/kg (Mus musculus [25]): 73.7% | Tmax [26]: 4.8 min | inhibition at 500 µM (Liver [9]): 62.3% | AUC(0-inf) [27]: 28400 ng·h/mL | MRT inf [28]: 1.08 h

Compound: Cc1nn(-c2ccccc2)c(O)c1Cc1cccc(S(C)(=O)=O)c1
inhibition [1]: 77.5% | inhibition [2]: 84.5% | inhibition [3]: 22.8%

Compound: Cc1nn(-c2cccc(Cl)c2)c(O)c1Cc1ccc(C(=O)NO)cc1
inhibition [1]: 75% | inhibition [2]: 90.5% | IC50 [6]: 23.8 µM | inhibition [3]: 69.2%

Compound: COc1cccc(-n2nc(C)c(Cc3ccc(C(=O)NO)cc3)c2O)c1
inhibition [1]: 78% | inhibition [2]: 89% | inhibition [3]: 43.3%

Compound: Cc1nn(-c2ccc(Cl)cc2)c(O)c1Cc1ccc(C(=O)O)cc1
inhibition [1]: 46% | inhibition [2]: 78.5% | inhibition [3]: 36.1%
